Results from ChEMBL document CHEMBL5625175, “Quinazoline-based VEGFR-2 inhibitors as potential anti-angiogenic agents: A contemporary perspective of SAR and molecular docking studies” (Eur J Med Chem, 2023).
Values after ≈ are worked out from the molar mass of the structure shown. Values belong to the compound of their own block, whether it stands above or below them.

How the values were obtained:
[1] = Antiproliferative activity against human WI-38 cells assessed as reduction in cell growth measured after 24 hrs by MTT assay; type: toxicity, cell-based
[2] = target: Platelet-derived growth factor receptor beta (Homo sapiens, UniProt P09619); experiment: Inhibition of human recombinant PDGFRbeta using poly (Glu, Tyr)4:1 as substrate measured after 60 mins by ELISA
Ephrin type-B receptor 4 = Ephrin type-B receptor 4 (Homo sapiens, UniProt P54760)
Angiopoietin-1 receptor = Angiopoietin-1 receptor (Homo sapiens, UniProt Q02763); experiment: Inhibition of TIE-2 (unknown origin)
MCF7 [3] = experiment: Antiproliferative activity against human MCF7 cells assessed as cell growth inhibition measured after 48 hrs by MTT assay; type: functional, cell-based; conditions: MCF7, 48 h
HCT-116 [4] = experiment: Antiproliferative activity against human HCT-116 cells assessed as cell growth inhibition measured after 48 hrs by MTT assay; type: functional, cell-based; conditions: HCT-116, 48 h
[5] = target: T1, Vascular endothelial growth factor receptor 2 (Homo sapiens, UniProt P35968)
MCF7 [6] = experiment: Growth inhibition of human MCF7 cells incubated for 24 hrs by MTT assay; type: functional
HepG2 [7] = experiment: Growth inhibition of human HepG2 cells incubated for 24 hrs by MTT assay; type: functional
HCT-116 [8] = experiment: Growth inhibition of human HCT-116 cells incubated for 24 hrs by MTT assay; type: functional
B16 = experiment: Antiproliferative activity against mouse B16 cells assessed as reduction in cell viability incubated for 48 hrs by MTT assay; type: functional, cell-based; conditions: B16, 48 h
HCT-116 [9] = experiment: cells; conditions: Homo sapiens, HCT-116, 48 h
MCF7 [10] = experiment: cells; conditions: Homo sapiens, MCF7, 48 h
[11] = target: T1, Vascular endothelial growth factor receptor 2; experiment: Inhibition of N-terminal polyhistidine human recombinant KDR using poly-(Glu4-Tyr) peptide as substrate incubated for 60 mins by DELFIA/time-resolved fluorometric analysis
NCI-H460 = experiment: cells; conditions: Homo sapiens, NCI-H460, 48 h
A549 = experiment: cells; conditions: Homo sapiens, A549, 48 h
Macrophage = experiment: cells; conditions: Homo sapiens, 48 h
[12] = target: T1, Vascular endothelial growth factor receptor 2; experiment: Inhibition of VEGFR-2 (unknown origin) by Kinase-Glo Max assay
MCF7 [13] = experiment: Induction of cell cycle arrest in human MCF7 cells assessed as reduction in accumulation of cells in G2/M phase at 10 uM incubated for 24 hrs by PI staining based flow cytometry analysis relative to control; type: functional; parameters: scale not given: the % may be the effect or the level left
[14] = target: T1, Vascular endothelial growth factor receptor 2; remark: listed apart in the source
MCF7 [15] = experiment: Cytotoxicity against human MCF7 cells assessed as reduction in cell growth incubated for 24 hrs by MTT assay; type: functional, cell-based; conditions: MCF7, 24 h
MDA-MB-231 [16] = experiment: Cytotoxicity against human MDA-MB-231 cells assessed as reduction in cell viability incubated for 24 hrs by MTT assay; type: functional, cell-based; conditions: MDA-MB-231, 24 h
MDA-MB-231 [17] = experiment: Cytotoxicity against human MDA-MB-231 cells assessed as reduction in cell viability incubated for 48 hrs by MTT assay; type: functional, cell-based; conditions: MDA-MB-231, 48 h
MCF7 [18] = experiment: cells; conditions: Homo sapiens, MCF7, 48 h; remark: listed apart in the source
MHCC97H = experiment: Antiproliferative activity against human MHCC97H cells assessed as reduction in cell viability incubated for 48 hrs by CCK-8 assay; type: functional, cell-based
HEK293 = experiment: Cytotoxicity against HEK293 cells assessed as cell growth inhibition measured after 48 hrs by CCK-8 assay; type: functional, cell-based; conditions: Homo sapiens, HEK293, 48 h
L02 = experiment: Cytotoxicity against human L02 cells assessed as cell growth inhibition measured after 48 hrs by CCK-8 assay; type: functional, cell-based; conditions: L02, 48 h
HUVEC = experiment: Antiproliferative activity against HUVEC cells assessed as reduction in cell viability incubated for 48 hrs by CCK-8 assay; type: functional, cell-based; conditions: Homo sapiens
[19] = target: Epidermal growth factor receptor (Homo sapiens, UniProt P00533); experiment: Inhibition of EGFR (unknown origin) using TK as substrate incubated for 60 mins by HTRF method
HepG2 [20] = experiment: Cytotoxicity against human HepG2 cells assessed as cell growth inhibition; type: functional, cell-based
HCT-116 [21] = experiment: Cytotoxicity against human HCT-116 cells assessed as cell growth inhibition; type: functional, cell-based
WISH = experiment: Cytotoxicity against human WISH cells assessed as cell growth inhibition; type: functional, cell-based

T1 sequence (P35968 whole entry): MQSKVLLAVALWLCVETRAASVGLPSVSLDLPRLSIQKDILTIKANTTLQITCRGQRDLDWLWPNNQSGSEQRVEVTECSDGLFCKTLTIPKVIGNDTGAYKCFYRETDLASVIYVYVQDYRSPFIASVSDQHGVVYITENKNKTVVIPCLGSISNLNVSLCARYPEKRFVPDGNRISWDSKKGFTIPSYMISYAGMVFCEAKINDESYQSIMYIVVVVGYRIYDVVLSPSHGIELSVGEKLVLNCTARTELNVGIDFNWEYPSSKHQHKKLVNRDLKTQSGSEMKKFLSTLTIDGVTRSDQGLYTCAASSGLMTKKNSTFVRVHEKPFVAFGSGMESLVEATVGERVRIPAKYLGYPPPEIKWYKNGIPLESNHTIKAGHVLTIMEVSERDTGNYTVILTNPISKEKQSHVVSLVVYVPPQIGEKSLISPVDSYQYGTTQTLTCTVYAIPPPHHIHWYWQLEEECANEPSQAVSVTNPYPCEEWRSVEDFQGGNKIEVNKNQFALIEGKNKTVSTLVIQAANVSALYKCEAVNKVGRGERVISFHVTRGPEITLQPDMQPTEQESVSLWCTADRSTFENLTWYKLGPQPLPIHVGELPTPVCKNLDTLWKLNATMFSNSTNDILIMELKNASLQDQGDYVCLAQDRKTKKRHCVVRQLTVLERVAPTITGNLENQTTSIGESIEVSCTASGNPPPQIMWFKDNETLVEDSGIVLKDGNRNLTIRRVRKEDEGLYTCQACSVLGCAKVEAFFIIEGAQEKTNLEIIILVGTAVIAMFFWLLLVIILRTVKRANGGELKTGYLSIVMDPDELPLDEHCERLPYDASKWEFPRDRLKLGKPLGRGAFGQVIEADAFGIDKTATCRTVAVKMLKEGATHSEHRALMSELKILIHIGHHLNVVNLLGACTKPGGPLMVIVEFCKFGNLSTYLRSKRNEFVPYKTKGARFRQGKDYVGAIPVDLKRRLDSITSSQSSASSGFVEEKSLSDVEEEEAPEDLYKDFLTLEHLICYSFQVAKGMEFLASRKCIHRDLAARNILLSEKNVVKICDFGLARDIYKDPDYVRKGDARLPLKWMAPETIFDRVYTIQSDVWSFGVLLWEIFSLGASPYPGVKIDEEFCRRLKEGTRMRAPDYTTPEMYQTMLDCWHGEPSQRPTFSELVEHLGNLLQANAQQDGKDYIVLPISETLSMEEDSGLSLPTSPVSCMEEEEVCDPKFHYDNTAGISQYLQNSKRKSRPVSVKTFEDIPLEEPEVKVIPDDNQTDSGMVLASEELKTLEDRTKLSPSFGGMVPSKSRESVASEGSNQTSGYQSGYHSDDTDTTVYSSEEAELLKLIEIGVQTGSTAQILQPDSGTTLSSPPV
Sequence of Ephrin type-B receptor 4 (P54760 whole entry): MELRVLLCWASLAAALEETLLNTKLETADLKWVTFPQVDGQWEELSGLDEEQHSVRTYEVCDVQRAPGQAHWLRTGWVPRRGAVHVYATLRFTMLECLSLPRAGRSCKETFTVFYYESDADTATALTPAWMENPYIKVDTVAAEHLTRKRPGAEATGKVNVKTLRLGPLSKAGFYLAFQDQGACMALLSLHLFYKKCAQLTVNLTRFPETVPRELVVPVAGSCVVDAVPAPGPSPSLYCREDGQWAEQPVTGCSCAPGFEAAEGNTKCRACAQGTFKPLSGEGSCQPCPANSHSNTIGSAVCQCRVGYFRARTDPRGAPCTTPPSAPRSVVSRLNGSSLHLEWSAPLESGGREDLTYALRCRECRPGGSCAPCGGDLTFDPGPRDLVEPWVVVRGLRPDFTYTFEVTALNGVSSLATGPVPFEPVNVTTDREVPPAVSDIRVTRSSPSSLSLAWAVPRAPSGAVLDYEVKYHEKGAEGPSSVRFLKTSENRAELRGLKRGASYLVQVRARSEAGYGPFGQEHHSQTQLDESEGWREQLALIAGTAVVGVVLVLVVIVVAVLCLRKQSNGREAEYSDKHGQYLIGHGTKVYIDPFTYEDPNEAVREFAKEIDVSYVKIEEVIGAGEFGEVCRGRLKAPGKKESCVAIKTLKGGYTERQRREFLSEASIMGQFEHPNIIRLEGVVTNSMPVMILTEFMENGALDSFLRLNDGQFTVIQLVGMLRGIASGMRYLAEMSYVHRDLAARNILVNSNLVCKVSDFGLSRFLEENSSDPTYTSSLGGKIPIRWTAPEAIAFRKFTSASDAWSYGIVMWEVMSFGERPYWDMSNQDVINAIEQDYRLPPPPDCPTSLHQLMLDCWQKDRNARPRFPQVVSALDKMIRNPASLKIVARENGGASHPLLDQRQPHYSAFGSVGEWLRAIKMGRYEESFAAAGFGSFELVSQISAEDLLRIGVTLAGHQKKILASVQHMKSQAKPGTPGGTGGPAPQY
Sequence of Platelet-derived growth factor receptor beta (P09619 whole entry): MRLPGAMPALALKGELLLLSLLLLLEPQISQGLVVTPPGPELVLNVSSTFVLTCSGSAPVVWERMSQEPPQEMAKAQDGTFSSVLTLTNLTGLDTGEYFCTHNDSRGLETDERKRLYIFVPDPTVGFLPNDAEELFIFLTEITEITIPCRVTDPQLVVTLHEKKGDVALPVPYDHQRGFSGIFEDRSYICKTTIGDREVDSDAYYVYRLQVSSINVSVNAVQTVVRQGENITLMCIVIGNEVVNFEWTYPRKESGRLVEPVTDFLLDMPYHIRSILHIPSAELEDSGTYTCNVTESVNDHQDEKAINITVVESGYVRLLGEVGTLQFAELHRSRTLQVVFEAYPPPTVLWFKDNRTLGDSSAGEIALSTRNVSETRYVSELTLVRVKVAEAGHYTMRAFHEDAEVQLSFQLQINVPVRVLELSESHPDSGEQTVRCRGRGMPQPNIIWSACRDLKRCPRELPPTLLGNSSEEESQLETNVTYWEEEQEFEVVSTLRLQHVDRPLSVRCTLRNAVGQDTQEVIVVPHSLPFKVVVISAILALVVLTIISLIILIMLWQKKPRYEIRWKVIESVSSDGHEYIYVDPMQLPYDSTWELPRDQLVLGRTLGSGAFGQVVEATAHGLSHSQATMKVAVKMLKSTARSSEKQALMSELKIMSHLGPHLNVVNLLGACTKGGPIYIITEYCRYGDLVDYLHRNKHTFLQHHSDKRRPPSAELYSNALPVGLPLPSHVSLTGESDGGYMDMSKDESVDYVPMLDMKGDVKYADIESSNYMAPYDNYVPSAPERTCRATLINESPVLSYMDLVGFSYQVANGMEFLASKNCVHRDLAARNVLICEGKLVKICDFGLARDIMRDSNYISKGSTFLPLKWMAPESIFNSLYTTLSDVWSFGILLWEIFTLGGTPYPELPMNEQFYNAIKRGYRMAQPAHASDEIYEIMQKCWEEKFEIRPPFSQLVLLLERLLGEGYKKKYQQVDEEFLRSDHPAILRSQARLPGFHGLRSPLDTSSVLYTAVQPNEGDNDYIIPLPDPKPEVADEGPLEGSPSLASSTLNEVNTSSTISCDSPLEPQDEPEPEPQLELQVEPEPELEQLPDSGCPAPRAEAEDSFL
Sequence of Epidermal growth factor receptor (P00533 whole entry): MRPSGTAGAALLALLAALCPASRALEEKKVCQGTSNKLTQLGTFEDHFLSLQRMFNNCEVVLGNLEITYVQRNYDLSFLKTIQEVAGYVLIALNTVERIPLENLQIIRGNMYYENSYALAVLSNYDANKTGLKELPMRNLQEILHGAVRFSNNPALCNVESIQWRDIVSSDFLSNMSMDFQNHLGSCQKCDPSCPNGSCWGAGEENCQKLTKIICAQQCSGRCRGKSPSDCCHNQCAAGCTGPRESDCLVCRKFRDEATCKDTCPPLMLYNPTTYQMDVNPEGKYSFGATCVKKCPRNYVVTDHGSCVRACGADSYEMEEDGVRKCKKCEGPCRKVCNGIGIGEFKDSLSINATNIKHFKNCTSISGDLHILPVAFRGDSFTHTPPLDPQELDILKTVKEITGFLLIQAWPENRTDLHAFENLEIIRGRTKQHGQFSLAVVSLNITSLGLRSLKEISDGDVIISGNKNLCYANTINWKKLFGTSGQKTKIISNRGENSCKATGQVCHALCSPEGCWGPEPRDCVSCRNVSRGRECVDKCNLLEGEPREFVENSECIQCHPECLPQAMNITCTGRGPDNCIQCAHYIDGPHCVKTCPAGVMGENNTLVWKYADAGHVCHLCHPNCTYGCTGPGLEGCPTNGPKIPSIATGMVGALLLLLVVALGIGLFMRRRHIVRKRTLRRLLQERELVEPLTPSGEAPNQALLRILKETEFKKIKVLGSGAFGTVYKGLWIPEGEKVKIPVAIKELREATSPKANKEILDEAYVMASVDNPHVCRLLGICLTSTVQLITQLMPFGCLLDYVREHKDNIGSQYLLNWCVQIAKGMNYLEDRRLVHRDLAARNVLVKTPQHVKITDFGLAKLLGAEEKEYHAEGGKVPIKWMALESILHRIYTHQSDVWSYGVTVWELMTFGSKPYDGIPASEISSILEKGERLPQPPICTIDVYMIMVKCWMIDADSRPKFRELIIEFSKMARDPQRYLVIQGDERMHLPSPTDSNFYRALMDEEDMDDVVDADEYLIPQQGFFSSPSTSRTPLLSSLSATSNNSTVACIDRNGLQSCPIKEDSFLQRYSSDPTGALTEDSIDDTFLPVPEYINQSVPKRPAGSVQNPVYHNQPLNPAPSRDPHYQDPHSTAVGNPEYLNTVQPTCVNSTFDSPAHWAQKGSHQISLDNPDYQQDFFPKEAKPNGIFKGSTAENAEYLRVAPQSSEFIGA

IC50 (MCF7 [3]): 6.77 µM | IC50 (HCT-116 [4]): 5 µM
Structure (SMILES): C/C(=N\NC(=O)c1ccccc1O)c1ccc(NC(=O)CSc2nc3ccccc3c(=O)n2-c2ccccc2)cc1

IC50 [5]: 0.12 µM | GI50 (MCF7 [6]): 5.27 µM | GI50 (HepG2 [7]): 9.16 µM | GI50 (HCT-116 [8]): 5.69 µM
Structure (SMILES): O=C(Cn1c(=O)c2ccccc2n(Cc2ccccc2)c1=O)Nc1ccc(C(=O)N/N=C/c2ccc(Cl)cc2)cc1

IC50 [14]: 0.64 µM
Structure (SMILES): NS(=O)(=O)c1ccc(-n2c(SCC(=O)N/N=C/c3ccc(Cl)cc3Cl)nc3cc4ccccc4cc3c2=O)cc1
Activity (MCF7 [13]): 24.17% | IC50 (MCF7 [15]): 0.1 µM

IC50 [5]: 0.247 µM
Structure (SMILES): COc1cccc(CNC(=O)CSc2nc3ccccc3c(=O)n2-c2ccc(S(N)(=O)=O)cc2)c1OC
IC50 (MDA-MB-231 [16]): 0.34 µM | IC50 (MDA-MB-231 [17]): 0.51 µM

IC50 [19]: 0.479 µM
Structure (SMILES): CC(C)c1ccc(Nc2ncnc3cc(NC(=O)Nc4ccccc4)ccc23)cc1

IC50 (B16): 9.29 µM | IC50 (HCT-116 [9]): 10.6 µM | IC50 (MCF7 [10]): 17.9 µM
Structure (SMILES): CNC(=O)c1cc(Oc2ccc(NC(=O)Nc3ccc(Cl)c(C(F)(F)F)c3)cc2)ccn1 [SORAFENIB]
IC50 (HepG2 [20]): 19.3 µM | IC50 (HCT-116 [21]): 6.82 µM | IC50 (WISH): 17.5 µM

More lines, now with the values behind:

Structure (SMILES): CCn1c(SCC(=O)NNC(=O)c2ccccc2)nc2ccc([N+](=O)[O-])cc2c1=O
IC50 at 24 h [1]: 146 µg/mL (≈ 341 µM)

Structure (SMILES): O=C(Nc1ccc(-c2ccc3c(=O)[nH]cnc3c2)cc1)Nc1ccc(F)c(F)c1
IC50 [2]: 98.5 µM | IC50 (Ephrin type-B receptor 4): 3.21 µM | IC50 (Angiopoietin-1 receptor): 8.87 µM

Structure (SMILES): COc1cc2ncnc(Oc3cccc(NC(=S)Nc4ccc(Br)c(C(F)(F)F)c4)c3)c2cc1OC
IC50 (B16): 5.57 µM | IC50 (HCT-116 [9]): 8.35 µM | IC50 (MCF7 [10]): 15.7 µM

Structure (SMILES): COc1cc2ncnc(Oc3cccc(NC(=S)Nc4ccc(Cl)c(C(F)(F)F)c4)c3)c2cc1OC
IC50 (B16): 6.11 µM | IC50 (HCT-116 [9]): 9.13 µM | IC50 (MCF7 [10]): 17.7 µM

Structure (SMILES): O=[N+]([O-])c1ccc(COc2ncnc3ccc([N+](=O)[O-])cc23)cc1
IC50 [11]: 0.00471 µM

Structure (SMILES): COc1cc2nccc(Oc3ccc(NC(=O)Nc4cc(C)on4)c(Cl)c3)c2cc1OC [TIVOZANIB]
IC50 (NCI-H460): 0.39 µM | IC50 (A549): 0.62 µM | IC50 (Macrophage): 227 µM

Structure (SMILES): CNC(=O)c1c(C)oc2cc(Oc3ncnc4cc(OC)c(OC)cc34)ccc12 [FRUQUINTINIB]
IC50 [12]: 0.035 µM

Structure (SMILES): Cc1ncc([N+](=O)[O-])n1CCOc1ncnc2ccc([N+](=O)[O-])cc12
IC50 (NCI-H460): 1.23 µM | IC50 (MCF7 [18]): 1.61 µM | IC50 (A549): 1.52 µM | IC50 (Macrophage): 290 µM

Structure (SMILES): COc1cc2ncnc(Oc3ccc(NC(=O)C4(C(=O)Nc5ccc(F)cc5)CC4)cc3F)c2c2c1OCCO2
IC50 (MHCC97H): 58.6 µg/mL (≈ 107 µM) | IC50 (HEK293): 15.1 µg/mL (≈ 27.5 µM) | IC50 (L02): 12.6 µg/mL (≈ 23 µM) | IC50 (HUVEC): 3.7 µg/mL (≈ 6.75 µM)

Structure (SMILES): COc1ccc(Cc2nnc(COc3ncnc4ccccc34)o2)cc1OC
IC50 (NCI-H460): 0.39 µM | IC50 (MCF7 [18]): 0.35 µM | IC50 (A549): 0.58 µM | IC50 (Macrophage): 288 µM
